Measurements: patent US11453697B1, “Cyclic di-nucleotide compounds as sting agonists” (Merck Sharp & Dohme Corp., priority 2015, dated 2022)
Like-named read-outs stand apart in the source and are kept apart here.

Tests used:
full-length HAQ STING = full-length HAQ STING (Homo sapiens (Human), UniProt Q86WV6, G230A/H232R/R293Q/R71H); test: 3H-cGAMP filtration binding assay (HAQ STING); conditions: competition with tritiated cGAMP, HAQ STING membrane; read-out: EC50 (nM), 3H-cGAMP filtration binding assay for HAQ STING
Chain of full-length HAQ STING (Q86WV6 other isoform, or with tags, fused parts or gaps, stated change not applied): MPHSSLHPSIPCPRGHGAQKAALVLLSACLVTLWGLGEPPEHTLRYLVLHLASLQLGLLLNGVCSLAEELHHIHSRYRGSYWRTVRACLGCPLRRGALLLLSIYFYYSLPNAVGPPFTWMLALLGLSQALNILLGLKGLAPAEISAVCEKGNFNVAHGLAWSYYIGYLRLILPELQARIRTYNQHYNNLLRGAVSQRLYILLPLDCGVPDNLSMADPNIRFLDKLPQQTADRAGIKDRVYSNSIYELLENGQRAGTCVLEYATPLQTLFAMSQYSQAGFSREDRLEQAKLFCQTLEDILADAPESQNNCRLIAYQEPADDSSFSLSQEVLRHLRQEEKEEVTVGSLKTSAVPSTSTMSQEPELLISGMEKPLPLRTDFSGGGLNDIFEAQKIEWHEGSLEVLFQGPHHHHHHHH
Text: The ability of compounds to bind STING is quantified by the ability to compete with tritiated cGAMP ligand for human STING receptor membrane using a radioactive filter-binding assay. The binding assay employs STING receptor obtained from Hi-Five cell membranes overexpressing full-length HAQ STING prepared in-house and tritiated cGAMP ligand also purified in-house.
The ability of compounds to bind STING is quantified by their ability to compete with tritiated cGAMP ligand for human STING receptor membrane using a radioactive filter-binding assay.
The basic HAQ STING filtration assay protocol is as follows:
Compound and membrane then preincubated for 60 min at RT to allow compound binding to equilibrate. Following equilibration, 8 nM of [^3H] c-GAMP ligand was prepared by diluting into assay buffer, and 50 uL of this working stock was then manually added to each well of the assay plate. […] The filter plates were then dried at 55° C. for 30 min using a pressurized VWR oven before 30 uL of Ultima GoldF scintillate was added to each well. Tritium levels for each reaction well were then measured using a PerkinElmer TopCount plate reader.
After normalization to controls, the percent activity for each compound concentration was calculated by measuring the amount of remaining radioactivity. The plot of percent activity versus the log of compound concentration was fit with a 4-parameter dose response equation to calculate EC50 values.

[1] = system: IFN-β secretion in THP1 cells; test: IFN-β secretion in THP1 cell culture (5 h); format: cell-based, human
Procedure, shortened: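 THP1 cells incubated with compound for 5 h at 37 °C, 5% CO2, and secreted IFN-β in supernatant quantified by AlphaLISA. Percent effect normalised to 30 uM cGAMP positive control and 0.3% DMSO. EC50 from 4-parameter fit.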

[2] = IFN-β secretion in THP1 cell culture, 5 h, compound at 30 μM, percent activation relative to 2′3′-cGAMP

Structure (SMILES)	EC50 (full-length HAQ STING)	% Effect at 30 μM relative to 2′3′-cGAMP [1, 2]	% Effect at 30 μM relative to 2′3′-cGAMP [1]
Nc1nc2c(ncn2[C@@H]2O[C@@H]3COP(=O)(O)O[C@H]4[C@@H](O)[C@H](c5n[nH]c6c(N)ncnc56)O[C@@H]4COP(=O)(O)O[C@@H]2[C@@H]3O)c(=O)[nH]1 [Example 49, 2-amino-9-[(5R,7R,8R,12aR,14S,15S,15aS,16R)-14-(7-amino-1H-pyrazolo[4,3-d]pyrimidin-3-yl)-2,10,15,16-tetrahydroxy-2,10-dioxidooctahydro-12H-5,8-methanofuro[3,2-l][1,3,6,9,11,2,10]pentaoxadiphosphacyclotetradecin-7-yl]-1,9-dihydro-6H-purin-6-one]	30 nM	74%	–
Nc1ncnc2c1ncn2[C@@H]1O[C@@H]2COP(=O)(O)O[C@@H]3C[C@@H](COP(=O)(O)O[C@H]2[C@H]1O)O[C@H]3n1cnc2c(=O)[nH]cnc21 [Example 50, 9-[(5S,7R,8R,12aR,14R,15R,15aS)-14-(6-amino-9H-purin-9-yl)-2,10,15-trihydroxy-2,10-dioxidooctahydro-12H-5,8-methanofuro[3,2-l][1,3,6,9,11,2,10]pentaoxadiphosphacyclotetradecin-7-yl]-1,9-dihydro-6H-purin-6-one]	2.7 nM	85%	–
Nc1nc2c(ncn2[C@@H]2O[C@@H]3COP(=O)(O)O[C@H]4[C@@H](O)[C@H](n5cnc6c(N)ncnc65)O[C@@H]4COP(=O)(O)O[C@@H]2[C@@H]3O)c(=S)[nH]1 [Example 53, 2-amino-9-[(5R,7R,8R,12aR,14R,15R,15aS,16R)-14-(6-amino-9H-purin-9-yl)-2,10,15,16-tetrahydroxy-2,10-dioxidooctahydro-12H-5,8-methanofuro[3,2-l][1,3,6,9,11,2,10]pentaoxadiphosphacyclotetradecin-7-yl]-1,9-dihydro-6H-purine-6-thione]	1.7 nM	127%	–
Nc1nc2c(ncn2[C@@H]2O[C@@H]3COP(=O)(O)O[C@H]4[C@@H](O)[C@H](c5cnn6c(N)ncnc56)O[C@@H]4COP(=O)(O)O[C@@H]2[C@@H]3O)c(=O)[nH]1 [Example 54, 2-amino-9-[(5R,7R,8R,12aR,14S,15S,15aS,16R)-14-(4-aminopyrazolo[1,5-a][1,3,5]triazin-8-yl)-2,10,15,16-tetrahydroxy-2,10-dioxidooctahydro-12H-5,8-methanofuro[3,2-l][1,3,6,9,11,2,10]pentaoxadiphosphacyclotetradecin-7-yl]-1,9-dihydro-6H-purin-6-one]	< 1 nM	–	83%
Nc1nc2c(ncn2[C@@H]2O[C@@H]3COP(=O)(O)O[C@H]4[C@@H](O)[C@H](n5nnc6c(N)ncnc65)O[C@@H]4COP(=O)(O)O[C@@H]2[C@@H]3O)c(=O)[nH]1 [Example 55, 2-amino-9-[(5R,7R,8R,12aR,14R,15R,15aS,16R)-14-(7-amino-3H-[1,2,3]triazolo[4,5-d]pyrimidin-3-yl)-2,10,15,16-tetrahydroxy-2,10-dioxidooctahydro-12H-5,8-methanofuro[3,2-l][1,3,6,9,11,2,10]pentaoxadiphosphacyclotetradecin-7-yl]-1,9-dihydro-6H-purin-6-one]	55.3 nM	83%	–
CCc1ncnc2c1ncn2[C@@H]1O[C@@H]2COP(=O)(O)O[C@@H]3[C@H](O)[C@@H](COP(=O)(O)O[C@H]2[C@H]1O)O[C@H]3n1cnc2c(=O)[nH]c(N)nc21 [Example 56, 2-amino-9-[(5R,7R,8R,12aR,14R,15R,15aS,16R)-14-(6-ethyl-9H-purin-9-yl)-2,10,15,16-tetrahydroxy-2,10-dioxidooctahydro-12H-5,8-methanofuro[3,2-l][1,3,6,9,11,2,10]pentaoxadiphosphacyclotetradecin-7-yl]-1,9-dihydro-6H-purin-6-one]	89.4 nM	64%	–
COCCc1ncnc2c1ncn2[C@@H]1O[C@@H]2COP(=O)(O)O[C@@H]3[C@H](O)[C@@H](COP(=O)(O)O[C@H]2[C@H]1O)O[C@H]3n1cnc2c(=O)[nH]c(N)nc21 [Example 57, 2-amino-9-{(5R,7R,8R,12aR,14R,15R,15aS,16R)-2,10,15,16-tetrahydroxy-14-[6-(2-methoxyethyl)-9H-purin-9-yl]-2,10-dioxidooctahydro-12H-5,8-methanofuro[3,2-l][1,3,6,9,11,2,10]pentaoxadiphosphacyclotetradecin-7-yl}-1,9-dihydro-6H-purin-6-one]	438 nM	7%	–
Nc1ncnc2c1ncn2[C@@H]1O[C@@H]2COP(=O)(O)O[C@@H]3[C@H](O)[C@@H](COP(=O)(O)O[C@H]2[C@H]1O)O[C@H]3n1cnc2c(=O)[nH]ccc21 [Example 58, 1-[(5R,7R,8R,12aR,14R,15R,15aS,16R)-14-(6-amino-9H-purin-9-yl)-2,10,15,16-tetrahydroxy-2,10-dioxidooctahydro-12H-5,8-methanofuro[3,2-l][1,3,6,9,11,2,10]pentaoxadiphosphacyclotetradecin-7-yl]-1,5-dihydro-4H-imidazo[4,5-c]pyridin-4-one]	3.1 nM	92%	–
Nc1ncc2ncn([C@@H]3O[C@@H]4COP(=O)(O)O[C@@H]5[C@H](O)[C@@H](COP(=O)(O)O[C@H]4[C@H]3O)O[C@H]5n3cnc4c(=O)[nH]c(N)nc43)c2n1 [Example 59, 2-amino-9-[(5R,7R,8R,12aR,14R,15R,15aS,16R)-14-(2-amino-9H-purin-9-yl)-2,10,15,16-tetrahydroxy-2,10-dioxidooctahydro-12H-5,8-methanofuro[3,2-l][1,3,6,9,11,2,10]pentaoxadiphosphacyclotetradecin-7-yl]-1,9-dihydro-6H-purin-6-one]	11.8 nM	76%	–
N#Cc1cn([C@@H]2O[C@@H]3COP(=O)(O)O[C@@H]4[C@H](O)[C@@H](COP(=O)(O)O[C@H]3[C@H]2O)O[C@H]4n2cnc3c(=O)[nH]c(N)nc32)c2ncnc(N)c12 [Example 60, 4-amino-7-[(5R,7R,8R,12aR,14R,15R,15aS,16R)-7-(2-amino-6-oxo-1,6-dihydro-9H-purin-9-yl)-2,10,15,16-tetrahydroxy-2,10-dioxidooctahydro-12H-5,8-methanofuro[3,2-l][1,3,6,9,11,2,10]pentaoxadiphosphacyclotetradecin-14-yl]-7H-pyrrolo[2,3-d]pyrimidine-5-carbonitrile]	42.5 nM	12%	–
Nc1ncnc2c1ncn2[C@@H]1O[C@@H]2COP(=O)(O)O[C@@H]3[C@H](O)[C@@H](COP(=O)(O)O[C@H]2[C@H]1O)O[C@H]3n1ncc2c(=O)[nH]cnc21 [Example 66, 1-[(5R,7R,8R,12aR,14R,15R,15aS,16R)-14-(6-amino-9H-purin-9-yl)-2,10,15,16-tetrahydroxy-2,10-dioxidooctahydro-12H-5,8-methanofuro[3,2-l][1,3,6,9,11,2,10]pentaoxadiphosphacyclotetradecin-7-yl]-1,5-dihydro-4H-pyrazolo[3,4-d]pyrimidin-4-one]	117 nM	54%	–
Nc1ncnc2c1ccn2[C@@H]1O[C@@H]2COP(=O)(O)O[C@@H]3C[C@@H](COP(=O)(O)O[C@H]2[C@H]1O)O[C@H]3n1cnc2c(=O)[nH]cnc21 [Example 67, 9-[(5S,7R,8R,12aR,14R,15R,15aS)-14-(4-amino-7H-pyrrolo[2,3-d]pyrimidin-7-yl)-2,10,15-trihydroxy-2,10-dioxidooctahydro-12H-5,8-methanofuro [3,2-l][1,3,6,9,11,2,10]pentaoxadiphosphacyclotetradecin-7-yl]-1,9-dihydro-6H-purin-6-one]	6.4 nM	111%	–
Nc1ncnc2c1ncn2[C@@H]1O[C@@H]2COP(=O)(O)O[C@@H]3[C@H](O)[C@@H](COP(=O)(O)O[C@H]2[C@H]1O)O[C@H]3c1cnc2c(=O)[nH]cnn12 [Example 68, 7-[(5R,7S,8R,12aR,14R,15R,15aS,16R)-14-(6-amino-9H-purin-9-yl)-2,10,15,16-tetrahydroxy-2,10-dioxidooctahydro-12H-5,8-methanofuro [3,2-l][1,3,6,9,11,2,10]pentaoxadiphosphacyclotetradecin-7-yl]imidazo[2,1-f][1,2,4]triazin-4(3H)-one]	63.8 nM	72%	–
Nc1nc2c(ncn2[C@@H]2O[C@@H]3COP(=O)(O)O[C@H]4[C@@H](O)[C@H](n5nnc6c(N)nccc65)O[C@@H]4COP(=O)(O)O[C@@H]2[C@@H]3O)c(=O)[nH]1 [Example 73, 2-amino-9-[(5R,7R,8R,12aR,14R,15R,15aS,16R)-14-(4-amino-1H-[1,2,3]triazolo[4,5-c]pyridin-1-yl)-2,10,15,16-tetrahydroxy-2,10-dioxidooctahydro-12H-5,8-methanofuro[3,2-l][1,3,6,9,11,2,10]pentaoxadiphosphacyclotetradecin-7-yl]-1,9-dihydro-6H-purin-6-one]	834 nM	5%	–
